Measured values from patent publication EP0334853B1, “SOFT STEROIDS HAVING ANTI-INFLAMMATORY ACTIVITY” (BODOR, Nicholas S., priority 1987, dated 1989).

tested on: skin of the flexor surface of the forearm; test: Topical vasoconstriction test (blanching, method of McKenzie and Stoughton); type: in vivo; conditions: 0.03M solution in acetone/isopropylmyristate 90:10, 0.05 milliliter on 1 cm patch, occluded; patch removed after about six hours, blanching score one hour later; average of duplicate, except entries marked ** (duplicate experiment not conducted)
Method: TOPICAL VASOCONSTRICTION TEST
A topical vasoconstriction test was conducted using the general method of McKenzie, A.W. and R.B. Stoughton, Arch. Dermatol, 86, (1962), 608-10. The topical vasoconstriction test was done in order to evaluate the anti-inflammatory potency of the novel compounds of the present invention. A 0.03M solution of the test compound in acetone/isopropylmyristate 90:10 volume/volume was prepared. An aliquot of 0.05 milliliter was applied to a circular patch, one centimeter in diameter, which was in turn applied against the skin of the flexor surface of the forearm (previously cleansed with ethanol 95% and dried). This application was occluded with a water-impervious film. The patch was removed after about six hours and the blanching score was evaluated one hour later. Two control compounds were used at the same time and under the same conditions. The control compounds were hydrocortisone 17-valerate and cortienic acid 17-ethylcarbonate chloromethylester. The experiment was made in duplicate and the average estimation values for the blanching activity are reported in Table I. The left column of Table I indicates the 17α-substituent of the structure: [drawing 44]

| Compound | BLANCHING STUDIES Value (average estimation values for the blanching activity) |
| --- | --- |
| CCCO[C@]1(C(=O)OCCl)CC[C@H]2[C@@H]3CCC4=CC(=O)CC[C@]4(C)[C@H]3[C@@H](O)C[C@@]21C [-OC₃H₇, Chloromethyl 11β-hydroxy-17α-propoxyandrost-4-en-3-one-17β-carboxylate] | 1 ** |
| hydrocortisone 17-valerate [reference compound] | 1.5 |
| CCO[C@]1(C(=O)OCCl)CC[C@H]2[C@@H]3CCC4=CC(=O)CC[C@]4(C)[C@H]3[C@@H](O)C[C@@]21C [-OCH₂H₅, chloromethyl 11β-hydroxy-17α-ethoxyandrost-4-en-3-one-17β-carboxylate] | 0.75 |
| CCCCO[C@]1(C(=O)OCCl)CC[C@H]2[C@@H]3CCC4=CC(=O)CC[C@]4(C)[C@H]3[C@@H](O)C[C@@]21C [-OC₄H₉, Chloromethyl 17α-butoxy-11β-hydroxyandrost-4-en-3-one-17β-carboxylate] | 0.5 |
| CCOC(=O)O[C@]1(C(=O)OCCl)CC[C@H]2[C@@H]3CCC4=CC(=O)CC[C@]4(C)[C@H]3[C@@H](O)C[C@@]21C [carbonate, cortienic acid 17-ethylcarbonate chloromethylester, reference compound] | 1.75 |

same assay, conditions: previous study, no details given

| Compound | activity (blanching), determined in a previous study |
| --- | --- |
| CO[C@]1(C(=O)OCCl)CC[C@H]2[C@@H]3CCC4=CC(=O)CC[C@]4(C)[C@H]3[C@@H](O)C[C@@]21C [-OCH₃, chloromethyl 11β-hydroxy-17α-methoxyandrost-4-en-3-one-17β-carboxylate] | * The 17-methoxy homologue was determined in a previous study to have low activity. |
